# In patent publication US9518283B1, “Selective enrichment media and uses thereof” (priority 2012, dated 2016):
# How the values were obtained:
# [1] = test system: non-Salmonella gram negative species; test: Media formulations / selective agents tested against competitor species; assay type: cell-based
# Experimental: Several media formulations were tested for permitting growth of Salmonella while inhibiting growth of non-Salmonella species. […] To minimize the potential of such environmental microflora to contribute to false positive reactions in selective indicator media, flavonoid compounds were investigated. Myricetin was tested as a potential suitable inhibitor for at least some of these gram negative species.
# [2] = test system: Shiga toxin-producing E. coli and Salmonella; assay type: cell-based
smiles,measurement,setting,value
O=c1c(O)c(-c2cc(O)c(O)c(O)c2)oc2cc(O)cc(O)c12 [Myricetin],effectiveness as inhibitor,[1]; Citrobacter and E. coli inactive isolates,of little use
same,inhibition,[1]; Enterobacter and Klebsiella spp.,inhibits
same,effectiveness as inhibitor,[1]; K. oxytoca and E. aerogenes,effective
CCN(CC)c1ccc(C(=C2C=CC(=[N+](CC)CC)C=C2)c2ccccc2)cc1 [Brilliant green],effect against Shiga toxin-producing E. coli (or Salmonella),[2],no effect
"O=C1CN(N=Cc2ccc([N+](=O)[O-])o2)C(=O)N1 [nitrofurantoin, 1-[[(5-Nitro-2-furanyl)methylene]amino]-2,4-imidazolidinedione]",effectiveness against Shiga toxin-producing E. coli and Salmonella,[2],surprisingly ineffective
